Reference: the supplement of paper PMC10307832

How the values were obtained:
Assay in all cases: relative viability (nuclei count vs DMSO), 5 days (fraction); higher = more cells survive
[1] = system: BEN
Procedure, shortened: (§1)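 Relative viability is defined as nuclei in treated wells over nuclei in vehicle wells. Duplicate plates were run and medians reported. Lung cancer cell lines in 1536-well plates were dosed by pin tool one day after seeding, with one drug or with a fixed anchor-drug dose plus five library-drug doses (not always all listed) in √10 steps, and nuclei were counted after 5 days.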

[2] = system: NCI-H1993
Procedure, shortened: as §1

[3] = system: NCI-H2347
Procedure, shortened: as §1

[4] = system: 201T
Procedure, shortened: as §1

[5] = system: NCI-H838
Procedure, shortened: as §1

[6] = system: NCI-H2126
Procedure, shortened: as §1

[7] = system: NCI-H650
Procedure, shortened: as §1

[8] = system: NCI-H1666
Procedure, shortened: as §1

[9] = system: NCI-H2023
Procedure, shortened: as §1

[10] = system: EMC-BAC-2
Procedure, shortened: as §1

[11] = system: NCI-H647
Procedure, shortened: as §1

CC1(C)CCC(c2ccc(Cl)cc2)=C(CN2CCN(c3ccc(C(=O)NS(=O)(=O)c4ccc(N[C@H](CCN5CCOCC5)CSc5ccccc5)c(S(=O)(=O)C(F)(F)F)c4)cc3)CC2)C1 [Navitoclax] + CC(=O)c1c(C)c2cnc(Nc3ccc(N4CCNCC4)cn3)nc2n(C2CCCC2)c1=O [Palbociclib] (partner 0.5 µM)
relative viability ([1]; first compound 0.005 µM): 0.475 | relative viability ([1]; first compound 0.01581 µM): 0.525 | relative viability ([1]; first compound 0.05 µM): 0.462 | relative viability ([1]; first compound 0.1581 µM): 0.399 | relative viability ([1]; first compound 0.5 µM): 0.268 | relative viability ([2]; first compound 0.005 µM): 0.7 | relative viability ([2]; first compound 0.01581 µM): 0.744 | relative viability ([2]; first compound 0.05 µM): 0.593 | relative viability ([2]; first compound 0.1581 µM): 0.749 | relative viability ([2]; first compound 0.5 µM): 0.653 | relative viability ([3]; first compound 0.005 µM): 0.468 | relative viability ([3]; first compound 0.01581 µM): 0.48 | relative viability ([3]; first compound 0.05 µM): 0.396 | relative viability ([3]; first compound 0.1581 µM): 0.439 | relative viability ([3]; first compound 0.5 µM): 0.377 | relative viability ([4]; first compound 0.005 µM): 0.342 | relative viability ([4]; first compound 0.01581 µM): 0.347 | relative viability ([4]; first compound 0.05 µM): 0.362 | relative viability ([4]; first compound 0.1581 µM): 0.365 | relative viability ([4]; first compound 0.5 µM): 0.355 | relative viability ([5]; first compound 0.005 µM): 0.193 | relative viability ([5]; first compound 0.01581 µM): 0.253 | relative viability ([5]; first compound 0.05 µM): 0.177 | relative viability ([5]; first compound 0.1581 µM): 0.209 | relative viability ([5]; first compound 0.5 µM): 0.224 | relative viability ([6]; first compound 0.005 µM): 0.35 | relative viability ([6]; first compound 0.01581 µM): 0.355 | relative viability ([6]; first compound 0.05 µM): 0.342 | relative viability ([6]; first compound 0.1581 µM): 0.303 | relative viability ([6]; first compound 0.5 µM): 0.366 | relative viability ([7]; first compound 0.005 µM): 0.326 | relative viability ([7]; first compound 0.01581 µM): 0.35 | relative viability ([7]; first compound 0.05 µM): 0.315 | relative viability ([7]; first compound 0.1581 µM): 0.304 | relative viability ([7]; first compound 0.5 µM): 0.336 | relative viability ([8]; first compound 0.005 µM): 0.623 | relative viability ([8]; first compound 0.01581 µM): 0.69 | relative viability ([8]; first compound 0.05 µM): 0.666 | relative viability ([8]; first compound 0.1581 µM): 0.665 | relative viability ([8]; first compound 0.5 µM): 0.726 | relative viability ([9]; first compound 0.005 µM): 0.421 | relative viability ([9]; first compound 0.01581 µM): 0.427 | relative viability ([9]; first compound 0.05 µM): 0.384 | relative viability ([9]; first compound 0.1581 µM): 0.401 | relative viability ([9]; first compound 0.5 µM): 0.439 | relative viability ([10]; first compound 0.005 µM): 0.522 | relative viability ([10]; first compound 0.01581 µM): 0.533 | relative viability ([10]; first compound 0.05 µM): 0.532 | relative viability ([10]; first compound 0.1581 µM): 0.5 | relative viability ([10]; first compound 0.5 µM): 0.507 | relative viability ([11]; first compound 0.005 µM): 0.336 | relative viability ([11]; first compound 0.01581 µM): 0.359 | relative viability ([11]; first compound 0.05 µM): 0.24 | relative viability ([11]; first compound 0.1581 µM): 0.414 | relative viability ([11]; first compound 0.5 µM): 0.344
